# In patent US12077503B2, “Substituted cyclic amides and their use as herbicides” (FMC CORPORATION, priority 2015, dated 2024):
# Key:
# Format in all cases: in vivo
# [1] = system: barnyardgrass (Echinochloa crus-galli); assay: Test G Pre-Emergence Protocol; conditions: Echinochloa crus-galli, pre-emergence, 312 h, evaluated after 13 days; for pest or weed control at 15.625 g/ha: 15.625 g ai/ha; for pest or weed control at 15.625 g/ha / pest or weed control at 250 g/ha: read-out: Barnyardgrass damage rating (100=total damage to plant; 0=no damage to plant); for pest or weed control at 62.5 g/ha: 62.5 g ai/ha, 100=total damage to plant, 0=no damage to plant, read-out: Barnyardgrass damage rating; for pest or weed control at 250 g/ha: 250 g ai/ha
# Procedure, shortened: (§1)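 Seeds were sown in standard soil and kept one day in a glasshouse (24/16° C day/night, 14 h light, 65% humidity), then sprayed with compound in acetone/water (50:50) containing 0.5% Tween 20 at 15.625, 62.5 or 250 g/ha. Damage was scored after 13 days (0 = none, 100 = total).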
# [2] = system: corn (Zea mays); assay: Test G Pre-Emergence Protocol; conditions: Zea mays, pre-emergence, 312 h, evaluated after 13 days; for plant injury at 15.625 g/ha: 15.625 g ai/ha; for plant injury at 15.625 g/ha / plant injury at 250 g/ha: read-out: Corn damage rating (100=total damage to plant; 0=no damage to plant); for plant injury at 62.5 g/ha: 62.5 g ai/ha, 100=total damage to plant, 0=no damage to plant, read-out: Corn damage rating; for plant injury at 250 g/ha: 250 g ai/ha
# Procedure, shortened: as §1
# [3] = system: giant foxtail (Setaria faberi); assay: Test G Pre-Emergence Protocol; conditions: Setaria faberi, pre-emergence, 312 h, evaluated after 13 days; for pest or weed control at 15.625 g/ha: 15.625 g ai/ha; for pest or weed control at 15.625 g/ha / pest or weed control at 250 g/ha: read-out: Foxtail, Giant damage rating (100=total damage to plant; 0=no damage to plant); for pest or weed control at 62.5 g/ha: 62.5 g ai/ha, 100=total damage to plant, 0=no damage to plant, read-out: Foxtail, Giant damage rating; for pest or weed control at 250 g/ha: 250 g ai/ha
# Procedure, shortened: as §1
# [4] = system: ivy-leaved morning glory (Ipomoea hederacea); assay: Test G Pre-Emergence Protocol; conditions: Ipomoea, pre-emergence, 312 h, evaluated after 13 days; for pest or weed control at 15.625 g/ha: 15.625 g ai/ha; for pest or weed control at 15.625 g/ha / pest or weed control at 250 g/ha: read-out: Morningglory, Ivy-leaved damage rating (100=total damage to plant; 0=no damage to plant); for pest or weed control at 62.5 g/ha: 62.5 g ai/ha, 100=total damage to plant, 0=no damage to plant, read-out: Morningglory, Ivy-leaved damage rating; for pest or weed control at 250 g/ha: 250 g ai/ha
# Procedure, shortened: as §1
# [5] = system: redroot pigweed (Amaranthus retroflexus); assay: Test G Pre-Emergence Protocol; conditions: Amaranthus retroflexus, pre-emergence, 312 h, evaluated after 13 days; for pest or weed control at 15.625 g/ha: 15.625 g ai/ha; for pest or weed control at 15.625 g/ha / pest or weed control at 250 g/ha: read-out: Pigweed, Redroot damage rating (100=total damage to plant; 0=no damage to plant); for pest or weed control at 62.5 g/ha: 62.5 g ai/ha, 100=total damage to plant, 0=no damage to plant, read-out: Pigweed, Redroot damage rating; for pest or weed control at 250 g/ha: 250 g ai/ha
# Procedure, shortened: as §1
# [6] = system: velvetleaf (Abutilon theophrasti); assay: Test G Pre-Emergence Protocol; conditions: Abutilon theophrasti, pre-emergence, 312 h, evaluated after 13 days; for pest or weed control at 15.625 g/ha: 15.625 g ai/ha; for pest or weed control at 15.625 g/ha / pest or weed control at 250 g/ha: read-out: Velvetleaf damage rating (100=total damage to plant; 0=no damage to plant); for pest or weed control at 62.5 g/ha: 62.5 g ai/ha, 100=total damage to plant, 0=no damage to plant, read-out: Velvetleaf damage rating; for pest or weed control at 250 g/ha: 250 g ai/ha
# Procedure, shortened: as §1
# [7] = system: barnyardgrass (Echinochloa crus-galli); assay: Test G Post-Emergence Protocol; conditions: Echinochloa crus-galli, post-emergence, 312 h, read-out: Barnyardgrass damage rating; for pest or weed control at 15.625 g/ha: 15.625 g ai/ha, evaluated after 13 days (100=total damage to plant; 0=no damage to plant); for pest or weed control at 62.5 g/ha: 62.5 g ai/ha; for pest or weed control at 62.5 g/ha / pest or weed control at 250 g/ha: evaluated after 13 days, 100=total damage to plant, 0=no damage to plant; for pest or weed control at 250 g/ha: 250 g ai/ha
# Procedure, shortened: (§2)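 Values are percent visual injury at 13 days after treatment (0 none, 100 total). Treatment was a post-emergence spray at 15.625, 62.5 or 250 g/ha on 8-day-old pot plants kept at 24/16 °C.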
# [8] = system: corn (Zea mays); assay: Test G Post-Emergence Protocol; conditions: Zea mays, post-emergence, 312 h, read-out: Corn damage rating; for plant injury at 15.625 g/ha: 15.625 g ai/ha, evaluated after 13 days (100=total damage to plant; 0=no damage to plant); for plant injury at 62.5 g/ha: 62.5 g ai/ha; for plant injury at 62.5 g/ha / plant injury at 250 g/ha: evaluated after 13 days, 100=total damage to plant, 0=no damage to plant; for plant injury at 250 g/ha: 250 g ai/ha
# Procedure, shortened: as §2
# [9] = system: giant foxtail (Setaria faberi); assay: Test G Post-Emergence Protocol; conditions: Setaria faberi, post-emergence, 312 h, read-out: Foxtail, Giant damage rating; for pest or weed control at 15.625 g/ha: 15.625 g ai/ha, evaluated after 13 days (100=total damage to plant; 0=no damage to plant); for pest or weed control at 62.5 g/ha: 62.5 g ai/ha; for pest or weed control at 62.5 g/ha / pest or weed control at 250 g/ha: evaluated after 13 days, 100=total damage to plant, 0=no damage to plant; for pest or weed control at 250 g/ha: 250 g ai/ha
# Procedure, shortened: as §2
# [10] = system: ivy-leaved morning glory (Ipomoea hederacea); assay: Test G Post-Emergence Protocol; conditions: Ipomoea, post-emergence, 312 h, read-out: Morningglory, Ivy-leaved damage rating; for pest or weed control at 15.625 g/ha: 15.625 g ai/ha, evaluated after 13 days (100=total damage to plant; 0=no damage to plant); for pest or weed control at 62.5 g/ha: 62.5 g ai/ha; for pest or weed control at 62.5 g/ha / pest or weed control at 250 g/ha: evaluated after 13 days, 100=total damage to plant, 0=no damage to plant; for pest or weed control at 250 g/ha: 250 g ai/ha
# Procedure, shortened: as §2
# [11] = system: redroot pigweed (Amaranthus retroflexus); assay: Test G Post-Emergence Protocol; conditions: Amaranthus retroflexus, post-emergence, 312 h, read-out: Pigweed, Redroot damage rating; for pest or weed control at 15.625 g/ha: 15.625 g ai/ha, evaluated after 13 days (100=total damage to plant; 0=no damage to plant); for pest or weed control at 62.5 g/ha: 62.5 g ai/ha; for pest or weed control at 62.5 g/ha / pest or weed control at 250 g/ha: evaluated after 13 days, 100=total damage to plant, 0=no damage to plant; for pest or weed control at 250 g/ha: 250 g ai/ha
# Procedure, shortened: as §2
# [12] = system: velvetleaf (Abutilon theophrasti); assay: Test G Post-Emergence Protocol; conditions: Abutilon theophrasti, post-emergence, 312 h, read-out: Velvetleaf damage rating; for pest or weed control at 15.625 g/ha: 15.625 g ai/ha, evaluated after 13 days (100=total damage to plant; 0=no damage to plant); for pest or weed control at 62.5 g/ha: 62.5 g ai/ha; for pest or weed control at 62.5 g/ha / pest or weed control at 250 g/ha: evaluated after 13 days, 100=total damage to plant, 0=no damage to plant; for pest or weed control at 250 g/ha: 250 g ai/ha
# Procedure, shortened: as §2
Compound,pest or weed control at 15.625 g/ha [1],pest or weed control at 62.5 g/ha [1],pest or weed control at 250 g/ha [1],plant injury at 15.625 g/ha [2],plant injury at 62.5 g/ha [2],plant injury at 250 g/ha [2],pest or weed control at 15.625 g/ha [3],pest or weed control at 62.5 g/ha [3],pest or weed control at 250 g/ha [3],pest or weed control at 15.625 g/ha [4],pest or weed control at 62.5 g/ha [4],pest or weed control at 250 g/ha [4],pest or weed control at 15.625 g/ha [5],pest or weed control at 62.5 g/ha [5],pest or weed control at 250 g/ha [5],pest or weed control at 15.625 g/ha [6],pest or weed control at 62.5 g/ha [6],pest or weed control at 250 g/ha [6],pest or weed control at 15.625 g/ha [7],pest or weed control at 62.5 g/ha [7],other results
CN1C[C@H](c2cc(Cl)cc(C(F)(F)F)c2)[C@@H](C(=O)Nc2ccccc2S(C)(=O)=O)C1=O (racemic) [Compound 1797],40%,60%,80%,10%,50%,70%,60%,80%,90%,0%,10%,20%,0%,0%,60%,0%,20%,70%,30%,70%,pest or weed control at 250 g/ha [7]: 80%; plant injury at 15.625 g/ha [8]: 10%; plant injury at 62.5 g/ha [8]: 60%; plant injury at 250 g/ha [8]: 70%; pest or weed control at 15.625 g/ha [9]: 50%; pest or weed control at 62.5 g/ha [9]: 80%; pest or weed control at 250 g/ha [9]: 80%; pest or weed control at 15.625 g/ha [10]: 0%; pest or weed control at 62.5 g/ha [10]: 40%; pest or weed control at 250 g/ha [10]: 80%; pest or weed control at 15.625 g/ha [11]: 30%; pest or weed control at 62.5 g/ha [11]: 70%; pest or weed control at 250 g/ha [11]: 80%; pest or weed control at 15.625 g/ha [12]: 60%; pest or weed control at 62.5 g/ha [12]: 80%; pest or weed control at 250 g/ha [12]: 90%
CN1C[C@H](c2cccc(C(F)F)c2)[C@@H](C(=O)Nc2ccccc2S(C)(=O)=O)C1=O (racemic) [Compound 1800],10%,40%,80%,0%,0%,0%,20%,70%,90%,0%,0%,0%,10%,20%,10%,0%,10%,0%,0%,10%,pest or weed control at 250 g/ha [7]: 80%; plant injury at 15.625 g/ha [8]: 0%; plant injury at 62.5 g/ha [8]: 0%; plant injury at 250 g/ha [8]: 0%; pest or weed control at 15.625 g/ha [9]: 0%; pest or weed control at 62.5 g/ha [9]: 20%; pest or weed control at 250 g/ha [9]: 70%; pest or weed control at 15.625 g/ha [10]: 0%; pest or weed control at 62.5 g/ha [10]: 10%; pest or weed control at 250 g/ha [10]: 20%; pest or weed control at 15.625 g/ha [11]: 0%; pest or weed control at 62.5 g/ha [11]: 10%; pest or weed control at 250 g/ha [11]: 10%; pest or weed control at 15.625 g/ha [12]: 0%; pest or weed control at 62.5 g/ha [12]: 0%; pest or weed control at 250 g/ha [12]: 0%
CCOc1ccc([C@@H]2CN(C)C(=O)[C@H]2C(=O)Nc2cccc(F)c2C)cc1Cl (racemic) [Compound 1803],20%,70%,90%,0%,0%,30%,70%,90%,90%,0%,0%,0%,30%,0%,40%,10%,0%,20%,0%,0%,pest or weed control at 250 g/ha [7]: 70%; plant injury at 15.625 g/ha [8]: 0%; plant injury at 62.5 g/ha [8]: 0%; plant injury at 250 g/ha [8]: 0%; pest or weed control at 15.625 g/ha [9]: 20%; pest or weed control at 62.5 g/ha [9]: 70%; pest or weed control at 250 g/ha [9]: 80%; pest or weed control at 15.625 g/ha [10]: 0%; pest or weed control at 62.5 g/ha [10]: 10%; pest or weed control at 250 g/ha [10]: 10%; pest or weed control at 15.625 g/ha [11]: 0%; pest or weed control at 62.5 g/ha [11]: 0%; pest or weed control at 250 g/ha [11]: 20%; pest or weed control at 15.625 g/ha [12]: 0%; pest or weed control at 62.5 g/ha [12]: 0%; pest or weed control at 250 g/ha [12]: 0%
